The target of assay [1] is T1, CrPAM (PHM activity) (Chlamydomonas reinhardtii, UniProt A0A0S2C767).
T1 construct: gene PAM; native full-length bifunctional membrane PAM (110 kDa) in detergent cell lysate; PHM domain activity measured
T1 sequence (A0A0S2C767 22-926): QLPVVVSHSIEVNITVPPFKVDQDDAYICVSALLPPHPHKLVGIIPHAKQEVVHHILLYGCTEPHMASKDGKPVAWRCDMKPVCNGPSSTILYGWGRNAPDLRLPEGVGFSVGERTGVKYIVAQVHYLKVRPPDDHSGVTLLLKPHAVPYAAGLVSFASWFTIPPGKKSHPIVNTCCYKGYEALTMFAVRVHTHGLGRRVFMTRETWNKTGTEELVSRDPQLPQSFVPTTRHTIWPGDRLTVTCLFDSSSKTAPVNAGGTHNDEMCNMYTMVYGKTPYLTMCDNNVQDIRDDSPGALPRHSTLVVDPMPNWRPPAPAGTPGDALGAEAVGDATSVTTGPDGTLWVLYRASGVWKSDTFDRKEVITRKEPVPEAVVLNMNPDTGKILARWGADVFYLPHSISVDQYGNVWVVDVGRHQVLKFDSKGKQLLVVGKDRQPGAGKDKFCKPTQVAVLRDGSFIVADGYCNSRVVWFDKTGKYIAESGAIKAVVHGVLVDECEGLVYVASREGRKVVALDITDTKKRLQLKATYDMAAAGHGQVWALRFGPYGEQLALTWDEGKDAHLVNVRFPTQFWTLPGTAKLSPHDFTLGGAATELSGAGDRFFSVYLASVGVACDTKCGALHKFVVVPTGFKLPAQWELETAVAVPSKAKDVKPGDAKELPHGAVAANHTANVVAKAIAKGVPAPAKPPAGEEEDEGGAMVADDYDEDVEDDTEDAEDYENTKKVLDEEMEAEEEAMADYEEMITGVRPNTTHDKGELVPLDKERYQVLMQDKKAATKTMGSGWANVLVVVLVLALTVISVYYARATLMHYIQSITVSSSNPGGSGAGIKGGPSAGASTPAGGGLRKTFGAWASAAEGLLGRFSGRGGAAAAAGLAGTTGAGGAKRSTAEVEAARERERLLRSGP
Kind of assay: PHM activity assay in cell lysate. The assay is classed as biochemical. Conditions: mechanism-based PHM inhibitor; PBA added to lysate; vehicle ethanol.

For assay [2], the target named is T2, rat PAM (PHM activity) (Rattus norvegicus, UniProt P14925).
T2 construct: rat PAM expressed in mouse corticotropes, cell lysate; PHM domain activity measured
T2 sequence (P14925 36-976): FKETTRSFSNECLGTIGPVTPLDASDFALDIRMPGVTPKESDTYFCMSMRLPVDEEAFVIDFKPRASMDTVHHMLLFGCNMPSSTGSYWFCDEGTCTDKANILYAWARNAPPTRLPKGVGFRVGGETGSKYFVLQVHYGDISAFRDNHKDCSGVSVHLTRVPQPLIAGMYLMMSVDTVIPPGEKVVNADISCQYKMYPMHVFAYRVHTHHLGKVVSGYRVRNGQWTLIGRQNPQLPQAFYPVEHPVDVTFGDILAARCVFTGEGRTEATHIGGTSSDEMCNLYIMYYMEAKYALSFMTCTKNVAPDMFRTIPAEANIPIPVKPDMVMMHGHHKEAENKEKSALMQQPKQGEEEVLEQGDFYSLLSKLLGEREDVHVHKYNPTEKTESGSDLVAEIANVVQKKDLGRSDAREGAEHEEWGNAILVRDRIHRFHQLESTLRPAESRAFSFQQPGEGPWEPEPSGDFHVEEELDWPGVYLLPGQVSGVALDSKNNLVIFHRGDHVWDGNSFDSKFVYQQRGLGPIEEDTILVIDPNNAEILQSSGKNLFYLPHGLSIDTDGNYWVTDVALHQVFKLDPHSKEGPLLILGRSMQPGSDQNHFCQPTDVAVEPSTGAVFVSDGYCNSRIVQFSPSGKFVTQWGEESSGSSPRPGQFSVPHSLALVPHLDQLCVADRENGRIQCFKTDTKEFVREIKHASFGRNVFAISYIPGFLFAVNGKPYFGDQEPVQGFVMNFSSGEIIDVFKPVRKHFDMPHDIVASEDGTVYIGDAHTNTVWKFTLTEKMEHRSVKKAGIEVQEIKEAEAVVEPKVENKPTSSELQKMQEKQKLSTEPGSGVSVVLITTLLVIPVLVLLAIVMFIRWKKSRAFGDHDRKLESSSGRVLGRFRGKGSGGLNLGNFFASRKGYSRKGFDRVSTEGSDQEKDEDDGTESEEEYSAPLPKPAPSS
Kind of assay: PHM activity assay in cell lysate. Conditions: mechanism-based PHM inhibitor; PBA added to lysate; vehicle ethanol. Type of assay: biochemical.

Turning to `O=C(O)CC=Cc1ccccc1` [4-phenyl-3-butenoic acid], the PHM specific activity result is “did inhibit both mammalian and C. reinhardtii PHM activities” in assay [1]; “PHM specific activity was greatly reduced in both lysates in the presence of PBA” in assay [2].
